Biological target: T1, récepteur du PAF (Oryctolagus cuniculus, UniProt G1TEI7)
T1 construct: préparation membranaire de plaquettes de lapin; from tissue; host or cells: rabbit blood platelets, lysed by freeze/thaw, membrane pellet
Experiment: Competitive binding of [³H]PAF to rabbit platelet membrane preparations (radioreceptor assay, vacuum filtration)
Set-up: species or system lapin
Procedure: - 1 Aliquot de préparation membranaire de plaquettes de lapin (A) - 1 Aliquot de préparation de récepteur du PAF conforme à l'invention (B), - PAF marqué au Tritium, activité spécifique 56 Ci/mmole (DU PONT DE NEMOURS (Boston MA, USA).) - PAF non marqué (BACHEM, Budendorf, Suisse).
Des aliquots de préparations membranaires de plaquettes de lapin (∼100 µg) sont incubés pour un volume final de 200 µl de solution contenant 1 nM de /³H/PAF (15300 cpm) et soit une quantité de PAF non marqué connue (gamme de référence), soit un aliquot de dilution de l'extrait à doser. […]
Les filtres sont placés dans des fioles de comptage avec 4 ml de liquide scintillant (Atomlight NEN). La radioactivité est quantifiée sur compteur à scintillation LKB Rack beta 1214.
La différence entre la quantité de [³H]PAF lié aux membranes en absence et en présence d'un excès de PAF non marqué (1000 x [³H] PAF) est considérée comme liaison spé-cifique maximale (B˙). […]
4.2. […] Le pourcentage de [³H ]PAF lié spécifiquement aux préparations en présence de ces différentes concentrations est déterminé par rapport à la quantité de [³H ]PAF lié spécifiquement en absence de PAF standard non marqué (B/Bo : B : cpm de [³H ]PAF lié aux membranes en pré-sence de PAF standard (liaison non spécifique déduite). Bo : cpm de [³H ]PAF lié aux membranes en absence de PAF standard (liaison non spécifique déduite). […]

T1 sequence (G1TEI7 1-342): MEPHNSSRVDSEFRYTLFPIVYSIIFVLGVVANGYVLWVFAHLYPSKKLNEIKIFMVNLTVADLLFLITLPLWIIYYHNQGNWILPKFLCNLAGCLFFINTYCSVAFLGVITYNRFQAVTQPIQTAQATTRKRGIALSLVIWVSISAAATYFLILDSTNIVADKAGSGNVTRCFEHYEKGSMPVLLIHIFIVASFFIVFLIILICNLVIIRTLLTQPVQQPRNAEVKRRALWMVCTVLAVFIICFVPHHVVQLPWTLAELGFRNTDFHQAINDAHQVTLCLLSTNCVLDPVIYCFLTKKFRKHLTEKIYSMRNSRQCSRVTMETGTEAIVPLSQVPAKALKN

CCCCCCCCCCCCCCCCOC[C@@H](O)COP(=O)([O-])OCC[N+](C)(C)C [lyso-PAF]
reconnaissance par le site de liaison utilisé pour le dosage (dose maximale testée : 10⁻⁶M, Figure 2 (B/Bo)): ne sont pas reconnus

1-0-alkyl-2-acétyl-sn-glycérol-3-phosphorylcholine [PAF standard]
ED₅₀ (dose de PAF standard nécessaire pour inhiber 50 % de la liaison spécifique) (1 nM [³H]PAF, + 4° C, 1 heure 30, four experiments taken at random): 0,63 + 0,15 ng/tube

Source: patent EP0345100A1, “Preparation of PAF receptors and method of quantity determination of PAF” (INSTITUT PASTEUR, priority 1988, dated 1989)
